Tests used:
Type in all cases: cell-based
[1] = tested on: hedgehog signaling pathway; experiment: Hedgehog signaling pathway activation (8X-Gli reporter, Gli 1 and Patched Q-RT-PCR, cyclopamine inhibition); settings: M2 cells
Experimental: M2-10B4 bone marrow stromal cells were transfected with an 8XGli luciferase reporter or the empty vector (pGL3b). Cells were subsequently treated with control vehicle, 5 μM Oxy49, or 400 ng/ml recombinant human sonic hedgehog (Shh) as positive control. After 48 hours of treatments, reporter luciferase activity was measured and normalized to Renilla luciferase activity (See FIG. 14). […] M2-10B4 bone marrow stromal cells were transfected with an 8XGli luciferase reporter or the empty vector (pGL3b). Cells were subsequently treated with control vehicle, 5 μM Oxy34, or 400 ng/ml recombinant human sonic hedgehog (Shh) as positive control. After 48 hours of treatments, reporter luciferase activity was measured and normalized to Renilla luciferase activity (See FIG. 15). […] After 48 hours of treatments, mRNA was extracted from cells and analyzed by Q-RT-PCR for expression of hedgehog target genes Gli 1 and Patched (See FIGS. 16A and 16B). […] Luciferase reporter activity using a reporter construct with 8X-Gli binding sites • 2. Q-RT-PCR analysis of the induction of hedgehog pathway target gene expression Gli 1 and Patched • 3.

[2] = tested on: Cyclin D1 mRNA expression; experiment: Q-RT-PCR for Cyclin D1 mRNA expression; settings: M2 cells
Experimental: (§1) Total RNA was extracted with the RNA isolation kit from Stratagene (La Jolla, Calif.) according to the manufacturer's instructions. RNA was DNase-treated using the DNA-free kit from Ambion, Inc. (Austin, Tex.). 3 μg of RNA was reverse-transcribed using reverse transcriptase from Stratagene (La Jolla, Calif.) to make single stranded cDNA. The cDNAs were mixed with Qi SYBR Green Supermix from Bio-Rad Laboratories (Hercules, Calif.) for quantitative RT-PCR using a Bio-Rad I-cycler IQ quantitative thermocycler. All PCR samples were prepared in triplicate or quadruplicate. Each sample was added to duplicate wells of a 96-well plate. After 40 cycles of PCR, melt curves were analyzed in order to ensure primer specificity, and the identity of all PCR products were verified by sequencing and comparing with the complete mRNA sequence obtained from PubMed's GenBank. Fold changes in gene expression were calculated using the ΔΔCt method (14). All primers were designed using the Beacon Designer software from Bio-Rad Laboratories (Hercules, Calif.). […]
M2 cells were treated with 5 μM SS, 200 ng/ml Shh, or control vehicle for 8 or 48 h. RNA was isolated and analyzed by Q-RT-PCR for Cyclin D1 expression (See FIGS. 4C and 4D).

[3] = tested on: Axin2 mRNA expression; experiment: Q-RT-PCR for Axin2 mRNA expression; settings: M2 cells, 8 and 48 hours; 5 μM SS, 200 ng/ml Shh, 40 mM LiCl
Experimental: as §1
M2 cells were treated with 5 μM SS, 200 ng/ml Shh, 40 mM LiCl, or control vehicle for 8 or 48 h. RNA was isolated and analyzed by Q-RT-PCR for Axing expression (See FIGS. 4A and 4B).

[4] = tested on: TCF/Lef transcriptional activity; experiment: TCF/Lef luciferase reporter assay (TBE4-luc); settings: M2 cells, 24 hours; 5 μM SS, 200 ng/ml Shh or 40 mM LiCl
Experimental: (§2) M2-10B4 cells at 70% confluence were transfected for 24 hours using FuGENE 6 Transfection Reagent (Roche Applied Science, Indianapolis, Ind.) according to manufacturer's instructions. The wild-type and mutant TCF/LEF binding site driven luciferase constructs (TBE4-luc and TBE4-luc-mut, repectively) were generous gifts from Dr. Baruch Frenkel (University of Southern California, Los Angeles, Calif.), and the Cyclin D1 promoter element-driven luciferase construct (Cyclin D1-luc) was a generous gift from Dr. Fanxin Long (Washington University, St. Louis, Mo.). Firefly luciferase values were normalized to Renilla luciferase activity and pEGFP-NI was used to evaluate transfection efficiency. Cells were then treated for 24, 48, or 72 hours with test agents before measuring luciferase activity using the Dual-Luciferase Reporter 1000 Assay System (Promega, Madison, Wis.) according to the manufacturer's instructions.
M2 cells were transfected with a luciferase reporter driven by 4 wild-type or mutant TCF/Lef DNA binding sites (TBE4-luc and TBE4-luc-mut, respectively) and analyzed for their response to 5 μM SS, 200 ng/ml Shh, 40 mM LiCl, or control vehicle after 24 h of treatment (see FIG. 3A).

[5] = tested on: TCF/Lef transcriptional activity (Cyclin D1 promoter element); experiment: Cyclin D1 promoter element luciferase reporter assay (Cyclin D1-luc); settings: M2 cells, 24 hours; 5 μM SS or 40 mM LiCl
Experimental: as §2
M2 cells were transfected with a luciferase reporter driven by a Cyclin D1 promoter element (Cyclin D1-luc) and analyzed for their response to 5 μM SS, 40 mM LiCl, or control vehicle after 24 h of treatment (see FIG. 3B).

| SMILES | Inhibition of oxysterol-induced hedgehog pathway activation [1] | Cyclin D1 mRNA expression ([2]; 8 hours) | Cyclin D1 mRNA expression ([2]; 48 hours) | Axin2 mRNA expression [3] | TCF/Lef reporter activity compared to untreated control cells [4] | Cyclin D1 promoter element TCF/Lef reporter activity [5] |
| --- | --- | --- | --- | --- | --- | --- |
| O=c1cc(N2CCOCC2)oc2c(-c3ccccc3)cccc12 [LY, LY 294002] | did not inhibit | – | – | – | – | – |
| [Cl-].[Li+] [LiCl, lithium chloride] | – | did not induce | inhibited its baseline expression | induced its expression at both time points | significantly induced | activated |

From patent US9526737B2, “Oxysterols for activation of hedgehog signaling, osteoinduction, antiadipogenesis, and Wnt signaling” (THE REGENTS OF THE UNIVERSITY OF CALIFORNIA, priority 2007, dated 2016)
